Data set [1] has as its system TNF-α production in THP-1 cells. The data set is described as follows: Measurement of inhibitory activity of TNF-α production (LPS-stimulated THP-1 cells, ELISA), Reference Example K 2. Format: cell-based. As to conditions: Homo sapiens, Reference Example H compounds, LPS 5 μg/mL, 4 hours, read-out: IC50 (inhibition of TNF-α production). The procedure: THP-1 cells cultured in a PRMI 1640 medium (Life Technologies, Inc., USA) containing 1% inactivated fetal bovine serum (Life Technologies, Inc.) and 10 mM HEPES (pH 7.5) were inoculated on a 96 well plate to give 1×10^5 cells/well, then, 1 μL of a sample compound dissolved in DMSO was added. After incubation for 1 hour at 37° C. in a CO2 incubator, LPS (Wako Pure Chemical Industries Ltd.) was added to give a final concentration of 5 μg/mL. After incubation for 4 hours at 37° C. in a CO2 incubator, the supernatant was obtained by centrifugal separation. The TNF-α concentration in the supernatant was measured by ELISA (R&D Systems, Quantikine Kit). The concentration (IC50 value) of a sample compound necessary for inhibiting 50% of TNF-α production was calculated by PRISM 2.01 (GraphPad Software).
A general note: ELISA stands for enzyme-linked immunosorbent assay.

In data set [2] the target is T1, human p38 MAP kinase (Homo sapiens, UniProt Q16539).
T1 construct: made in house; host or cells: Sf-21 insect cells, baculovirus (BAC-HP38 co-infected with BAC-caMKK3)
T1 sequence (Q16539 whole entry): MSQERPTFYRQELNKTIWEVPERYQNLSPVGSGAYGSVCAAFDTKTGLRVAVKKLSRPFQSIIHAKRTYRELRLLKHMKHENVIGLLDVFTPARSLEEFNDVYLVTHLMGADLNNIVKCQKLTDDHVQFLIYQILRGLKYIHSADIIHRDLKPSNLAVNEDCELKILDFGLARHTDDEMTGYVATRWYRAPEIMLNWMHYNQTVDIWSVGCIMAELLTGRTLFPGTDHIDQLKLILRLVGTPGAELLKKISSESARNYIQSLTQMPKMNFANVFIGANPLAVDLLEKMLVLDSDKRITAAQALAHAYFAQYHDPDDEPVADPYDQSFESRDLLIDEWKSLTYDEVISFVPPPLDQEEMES
Briefly: Inhibition of active type p38 MAP kinase (32P incorporation into Myelin Basic Protein), Reference Example K 1. Format: biochemical. The conditions noted are these: Reference Example H compounds, 30° C., 60 minutes. The procedure:
Genetic manipulation methods described below are based on methods described in Maniatis et al., Molecular Cloning, ColdSpring Harbor Laboratory, 1989, and the appended reagent protocol.
(§1) (1) Cloning of Human p38 MAP Kinase Gene and Preparation of Recombinant Baculovirus
Cloning of human p38 MAP kinase gene was conducted by a PCR method using primer set p38 U: 5′-[…] C-3′ [SEQ ID No. 1] and PAG-L: 5′-[…]-3′ [SEQ ID No. 2] synthesized referring to the nucleotide sequence of p38 MAP kinase gene of Han et al., Science 265 (5173), 808 811 (1994), utilizing kidney cDNA (QUICK-Clone cDNA, manufactured by Toyobo Co., Ltd.) as a template.
A PCR reaction was performed according to Hot Start method using AmpliWax PCR Gem 100 (Takara Shuzo Co., Ltd.). For preparing lower layer mixed liquid, 2 μL of 10×LA PCR Buffer, 3 μL of 2.5 mM dNTP solution, each 2.5 μL of 12.5 μM primer solution, and 10 μL of sterile distilled water were mixed. For preparing upper layer mixed liquid, 1 μL of human heart cDNA (1 ng/mL) as a template, 3 μL of 10×LA PCR Buffer, 1 μL of 2.5 mM dNTP solution, 0.5 μL of TaKaRa LA Taq DNA polymerase (Takara Shuzo Co., Ltd.) and 24.5 μL of sterile distilled water were mixed. To the prepared lower mixed liquid was added one AmpliWax PCR Gem 100 (Takara Shuzo Co., Ltd.), treated for 5 minutes at 70° C. and 5 minutes in ice, then, the upper mixed liquid was added, to prepare a reaction solution for PCR. A tube filled with the reaction solution was set on Thermal Cycler (Perkin Elmer), then, treated for 2 minutes at 95° C. Further, a cycle including 15 seconds at 95° C. and 2 minutes at 68° C. was repeated 35 times, then, treated for 8 minutes at 72° C. The resulted PCR product was subjected to agarose gel (1%) electrophoresis, a 1.1 kb DNA fragment containing a p38 MAP kinase gene was recovered from the gel, then, pT7Blue-T vector (Takara Shuzo Co., Ltd.) was inserted to prepare a plasmid pHP38.
4.8 kb XhoI-KpnI fragment of plasmid pFASTBAC1 (CIBCOBRL) and 1.1 kb XhoI-Kpn fragment of the above-mentioned plasmid pHP38 were ligated to construct plasmid pFBHP38.
Plasmid pFBHP38 and BAC-TO-BAC Baculovirus Expression System (GIBCOBRL) were used to prepare virus stock BAC-HP38 of recombinant baculovirus.
(§2) (2) Cloning of Human MKK3 Gene and Preparation of Recombinant Baculovirus
Cloning of human MKK3 gene was conducted by a PCR method using primer set MKK-U: 5′-[…] 3′ [SEQ ID No. 3] and MKK-L: 5′-[…]-3′ [SEQ ID No. 4] synthesized referring to the nucleotide sequence of MKK3 gene of Derijard, B. et al., Science 267 (5198), 682 685 (1995), utilizing kidney cDNA (QUICK-Clone cDNA, manufactured by Toyobo Co., Ltd.) as a template.
A PCR reaction was performed according to Hot Start method using AmpliWax PCR Gem 100 (Takara Shuzo Co., Ltd.). […]

The target in data set [3] is T1, human p38 MAP kinase. The data set is described as follows: Measurement of the p38 MAP kinase inhibitory activity, 32P uptake into Myelin Basic Protein (Reference Example F 2). Format: biochemical. As to conditions: active form p38 MAP kinase, 30° C. 60 minutes, read-out: IC50 (p38 MAP kinase inhibitory activity, uptake of 32P into acid insoluble fraction). The procedure:
The genetic manipulations described below were according to the methods described in the book (Maniatis et al., Molecular Cloning, Cold Spring Harbor Laboratory, 1989) or a method described in the protocol attached to the reagent.
as §1
Cloning of human p38 MAP kinase gene was performed by a PCR method using a primer set P38 U: 5′-[…]-3′ [SEQ ID NO:9] and PAG-L: 5′-[…]-3′ [SEQ ID NO:10] made by reference to the base sequence of p38 MAP kinase gene reported by Han et al. (Science 265 (5173), 808 811 (1994)) and employing kidney cDNA (Toyobo, QUICK-Clone cDNA) as a template.
A PCR reaction was performed by a Hot Start method using AmpliWax PCR Gem 100 (Takara Shuzo). As the lower mixed solution, 2 μL 10×LA PCR Buffer, 3 μL 2.5 mM dNTP solution, each 2.5 μL of 12.5 μM primer solution, and 10 μL sterile distilled water were mixed. As the upper mixed solution, 1 μL human cardiac cDNA (1 ng/mL) as a template, 3 μL 10×LA PCR Buffer, 1 μL 2.5 mM dNTP solution, 0.5 μL TaKaRa LA Taq DNA polymerase (Takara Shuzo), and 24.5 μL sterile distilled water were mixed. One AmpliWax PCR Gem 100 (Takara Shuzo) was added to the prepared lower mixed solution to treat at 70° C. for 5 minutes and for 5 minutes in an ice and, thereafter, the upper mixed solution was added to prepare a reaction solution for PCR. A tube containing the reaction solution was set at a thermal cycler (Perkin Elmer), which was treated at 95° C. for 2 minutes. Further, after repeating 35 times a cycle of 15 seconds at 95° C. and 2 minutes at 68° C., treatment was performed at 72° C. for 8 minutes. The resulting PCR product was subjected to agarose gel (1%) electrophoresis, 1.1 kb DNA fragment containing p38 MAP kinase gene was recovered from the gel and, thereafter, which was inserted into pT7Blue-T vector (Takara Shuzo) to make the plasmid pHP38.
The 4.8 kb XhoI-KpnI fragment of the plasmid pFASTBAC1 (CIBCOBRL) and the 1.1 kb XhoI-Kpn fragment of the above plasmid pHP38 were ligated to make the plasmid pFBHP38.
The plasmid pFBHP38 and BAC-TO-BAC Baculovirus Expression System (GIBCOBRL) were used to prepare the recombinant Baculovirus virusstock BAC-HP38.
as §2
Cloning of human MKK3 gene was performed by a PCR method using a primer set MKK-U: 5′-[…]-3′ [SEQ ID NO:11] and MKK-L: 5′-[…]-3′ [SEQ ID NO:12] made by reference to the base sequence of MKK3 gene reported by Derijard, B. et al., Science 267 (5198), 682 685 (1995) and using kidney cDNA (Toyobo, QUICK-Clone cDNA).
A PCR reaction was performed by a Hot Start method using AmpliWax PCR Gem 100 (Takara Shuzo). As the lower mixed solution, 2 μL 10×LA PCR Buffer, 3 μL 2.5 mM dNTP solution, each 2.5 μL of 12.5 μM primer solution, and 10 μL sterile distilled water were mixed. As the upper mixed solution, 1 μL human kidney cDNA (1 ng/mL), 3 μL 10×LA PCR Buffer, 1 μL 2.5 mM dNTP solution, 0.5 μL TaKaRa LA taq DNA polymerase (Takara Shuzo) and 24.5 μL sterile distilled water were mixed. One AmpliWax PCR Gem 100 (Takara Shuzo) was added to the prepared lower mixed solution to treat at 70° C. for 5 minutes and for 5 minutes in ice and, thereafter, the upper mixed solution was added to prepare a reaction solution for PCR. A tube containing the reaction solution was set at a thermal cycler (Perkin Elmer), which was treated at 95° C. for 2 minutes. Further, after repeating 35 times a cycle of 15 seconds at 95° C. and 2 minutes at 68° C., treatment was performed at 72° C. for 8 minutes. The resulting PCR product was subjected to agarose gel (1%) electrophoresis, 1.0 kb DNA fragment containing MKK3 gene was recovered from the gel and, thereafter, which was inserted into pT7Blue-T vector (Takara Shuzo) to make the plasmid pHMKK3. […]

For a further data set, the system named is TNF-α production. The data set is described as follows: Measurement of inhibiting activity of TNF-α production in LPS-stimulated THP-1 cells, ELISA (Reference Example F 3). The conditions noted are these: Homo sapiens, LPS 5 μg/mL, 4 hours, ELISA (R&D System). Format: cell-based. The procedure: Measurement of Inhibiting Activity of TNF-α Production
After THP-1 cells which had been cultured in PRMI 1640 medium (manufactured by Life Technologies, Inc.) containing 1% non-activated bovine fetal serum (manufactured by Life Technologies, Inc., U.S.A.) and 10 mM HEPES (pH 7.5) seeded on a 96 well plate to 1×10^5 cells/well, 1 μL test compound dissolved in DMSO was added to there. After incubation at 37° C. for 1 hour in a CO2 incubator, LPS (Wako Pure Chemicals) was added to the final concentration 5 μg/mL. After cultured at 37° C. for 4 hours in a CO2 incubator, the supernatant was obtained by centrifugation. The concentration of TNF-α in the supernatant was measured with ELISA (R&D System, Quantikine Kit). The concentration (IC50 value) necessary for inhibiting TNF-α production by 50% was calculated by PRIMS 2.01 (Graphpad Software).

Among the data in patent US20050080113A1, “Medicinal compositions” (priority 2001, published 2005) are IC50 and melting point values, retold here.

Usually pIC50 stands for the negative decadic logarithm of the IC50, by convention in mol/L. As usually defined, the melting point is the temperature, or range, at which the solid turns liquid.

pIC50: −log10 of the molar value.

On to `CCc1nc(-c2cccc(Cl)c2)c(-c2ccnc(NC3CCCCC3)c2)s1` [36-10], for which the melting point lay in the range of 106 to 107 °C. Further, the pIC50 in data set [1] is 7.26. The molecule further showed a pIC50 against human p38 MAP kinase [2] of 8.96.

On to `Cc1cccc(-c2nc(N(C)C(=O)c3ccc(C)nc3)sc2-c2ccnc(NC3CCCC3)c2)c1` [46-4], for which the pIC50 in data set [1] is 7.09.

Molecule `CCC(=O)Nc1cc(-c2sc(-c3ccc(S(C)(=O)=O)cc3)nc2-c2cccc(Cl)c2)ccn1` [58-7] came in with a melting point of 224 to 225 °C. Further, the pIC50 in data set [1] was 7.68. In addition, on human p38 MAP kinase [2], the pIC50 was 8.08.

Regarding `Cc1cc(C)cc(-c2nc(N)sc2-c2ccnc(OCc3ccccc3)c2)c1` [D 1, [4-(3,5-dimethylphenyl)-5-(2-phenylmethyloxy-4-pyridyl)-1,3-thiazol-2-yl]amine], at human p38 MAP kinase [3], the negative-log IC50 (pIC50) is 6.37.

As to `COc1ccc(-c2nc(NC(=O)c3ccccc3)sc2-c2ccnc(NC(=O)c3ccccc3)c2)cc1` [D 2, N-[4-[2-benzoylamino-4-(4-methoxyphenyl)-1,3-thiazol-5-yl]-2-pyridyl]benzamide], the pIC50 at human p38 MAP kinase [3] was 7.20.

`COc1ccc(-c2nc(NC(=O)c3cccnc3)sc2-c2ccnc(NC(=O)c3cccnc3)c2)cc1` [D 3, N-[4-(4-methoxyphenyl)-5-[2-[(3-pyridylcarbonylamino)]-4-pyridyl]-1,3-thiazol-2-yl]nicotinamide]: the pIC50 was 7.59 in the data set on TNF-α production and 7.64 on human p38 MAP kinase [3].

Regarding `Cc1cc(C)cc(-c2nc(N)sc2-c2ccnc(NC(=O)c3ccccc3)c2)c1` [D 5, N-[4-[2-amino-4-(3,5-dimethylphenyl)-1,3-thiazol-5-yl]-2-pyridyl]benzamide], the pIC50 on human p38 MAP kinase [3] was 7.54.

`CCc1nc(-c2cccc(Cl)c2)c(-c2ccnc(NC(C)=O)c2)s1` [H 30-2, N-[4-[4-(3-chlorophenyl)-2-ethyl-1,3-thiazol-5-yl]-2-pyridyl]acetamide] had a melting point of 149 to 150 °C. For the same molecule, in data set [1], the pIC50 is 6.92. In addition, the pIC50 on human p38 MAP kinase [2] is 8.00.

Consider `Cc1cccc(-c2nc(N)sc2-c2ccnc(NC3CCCCC3)c2)c1` [H 34-2, [5 (2 cyclohexylamino-4-pyridyl)-4 (3 methylphenyl)-1,3thiazol-2 yl]amine], for which the melting point was 168 to 169 °C. In data set [1], the negative-log IC50 (pIC50) is 8.70. The pIC50 on human p38 MAP kinase [2] is 8.00.
